From US7566737B2 (Genfit, priority 2002, dated 2009) come the findings set out here.

For assay [1], the system named is C57Black/6 mice. The assay is described as follows: Prophylactic neuroprotection, cerebral ischemia-reperfusion model (middle cerebral artery occlusion). The assay is classed as in vivo, mouse. The note with it: gavage 200 mg/kg/day for 14 days before occlusion; 60 minutes occlusion, 24 hours reperfusion; untreated 37. The protocol:
C57 black/6 mice (wild-type) were used for this experiment. Animals were maintained on a 12 hour light-dark cycle at a temperature of 20° C.±3° C. Water and food were available ad libitum. Food intake and weight gain were recorded all along the experiment. The inventive compounds (200 mg/kg/day) or the vehicle (0.5% carboxycellulose (CMC)) were administered to the animals by gavage, for 14 days before ischemia induction in the middle cerebral artery.
Animals were anesthetized by intraperitoneal injection of 300 mg/kg chloral hydrate. A rectal probe was inserted and body temperature was maintained at 37° C.±0.5° C. Blood pressure was monitored throughout the experiment. Under a surgical microscope, the right carotid artery was exposed by a median incision in the neck. […]
Twenty-four hours after reperfusion, animals previously treated or not with the compounds were euthanized by pentobarbital overdose. […] Areas were measured and the volume of the infarct and the two hemispheres was calculated by the following formula: (corrected infarct volume=infarct volume−(volume of right hemisphere−volume of left hemisphere)) to compensate for cerebral oedema. […]

The test system of assay [2] is C57 black/6 mice. The assay is described as follows: Acute neuroprotection, cerebral ischemia-reperfusion model (middle cerebral artery occlusion). The assay is classed as in vivo, mouse. The note with it: 200 mg/kg/day for 72 hours after occlusion; untreated 41. As to the method:
Animals such as those described previously were used for this experiment. Animals were anesthetized by intraperitoneal injection of 300 mg/kg chloral hydrate. A rectal probe was inserted and body temperature was maintained at 37° C.±0.5° C. Blood pressure was monitored throughout the experiment. Under a surgical microscope, the right carotid artery was exposed by a median incision in the neck. The pterygopalatine artery was ligated at its origin and an arteriotomy was fashioned in the external carotid artery so as to insert a nylon monofilament, which was gently advanced to the common carotid artery and then into the internal carotid artery so as to occlude the origin of the middle cerebral artery. The filament was withdrawn one hour later to allow reperfusion.
Animals first subjected to ischemia-reperfusion were treated with the inventive compounds by the oral or systemic route one or more times after reperfusion.
Seventy-two hours after reperfusion, animals previously treated or not with the compounds were euthanized by pentobarbital overdose. Brains were rapidly frozen and sliced. Sections were stained with cresyl violet. […] Areas were measured and the volume of the infarct and the two hemispheres was calculated by the following formula: (corrected infarct volume=infarct volume−(volume of right hemisphere−volume of left hemisphere)) to compensate for cerebral oedema. […]

The structures appear in SMILES notation.

The molecule `Cc1cc(/C=C/C(=O)c2ccc(Cl)cc2)cc(C)c1OC(C)(C)C(=O)OC(C)C` [Compound 15, 1-[4-chlorophenyl]-3-[3,5-dimethyl-4-isopropyloxycarbonyldimethylmethyloxyphenyl]prop-2-en-1-one] came in with an infarct volume in assay [1] of 32 mm^3. The “total corrected infarct volume” value in assay [2] worked out at 29 mm^3.
The corresponding values for `CC(C)OC(=O)C(C)(C)Oc1ccc(/C=C/C(=O)c2ccccc2O)cc1` [Compound 42] are 24 mm^3 and 29 mm^3.
